Assay: gradient 5% acetonitrile 3 min, to 50% in 2 min, to 85% in 15 min, held 3 min, 100 µL/min
Details: column: Zorbax Extend-C18 2.1 x 50 mm; eluents: water / acetonitrile, 0.1% formic acid
Method in brief: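 Mixtures of ~100 pure standards were chromatographed on a Zorbax Extend-C18 column (2.1 × 50 mm, 1.8 μm) at 100 μL/min using water and acetonitrile, each with 0.1% formic acid. Detection used a quadrupole time-of-flight mass spectrometer in positive and negative ionization mode, and data collection spanned 3 months. Retention time was obtained from adduct peaks picked computationally and each checked manually.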

Row | SMILES | RP-LC retention time
1 | CCN(CC)c1ncc2c(n1)CCC(C(=O)N1CCN(c3ccc(C)cc3)CC1)C2 (stereo unspecified) | 793 s
2 | CC(C)(C)NC(=O)N1CCC(CNC(=O)c2cccs2)CC1 | 655 s
3 | COc1ccc(NC(=O)C2CCN(S(=O)(=O)c3ccc4c(c3)NC(=O)CO4)CC2)cc1Cl | 777 s
4 | O=C(Cc1ccc(Br)cc1)N1CCCN(c2cc(-c3ccc(F)cc3)[nH]n2)CC1 | 773 s
5 | Cc1onc(-c2ccc(Br)s2)c1C(=O)NCCCN1CCN(C)CC1 | 611 s
6 | Cc1[nH]nc(-c2c(C)sc(C)c2S(=O)(=O)NC2CCCc3ccccc32)c1C (stereo unspecified) | 1130 s
7 | COCc1nc(C2CCN(C(=O)c3ccoc3)C2)no1 (stereo unspecified) | 644 s
8 | O=C(Cn1cnc2nc(N3CCCC(C(=O)NC4CC4)C3)sc2c1=O)NC1CCCC1 (stereo unspecified) | 628 s
9 | C/C=C1\C2C=C(C)C[C@]1(N)c1ccc(=O)[nH]c1C2 | 578 s
10 | CS(=O)(=O)N1CCc2ccc(C(=O)NCCN3CCC(N4CCCCC4)CC3)cc21 | 583 s
11 | CCNc1cc(N2CCC(CCC(=O)NCc3ccc(F)cc3Cl)CC2)ncn1 | 680 s
12 | CC(NC(=O)c1cc2sccc2n1C)c1ccc2c(c1)OCCO2 (stereo unspecified) | 903 s
13 | O=C(NCCN1CCc2ccccc2C1)C1CCCN(c2ncnc3c2nc2n3CCCCC2)C1 (stereo unspecified) | 622 s
14 | CCN(CC)CCNC(=O)CN1C(=O)C2CCCCN2c2ccc(S(=O)(=O)N3CCCC3)cc21 (stereo unspecified) | 633 s
15 | CN(CC1CCOCC1)C(=O)Cc1ccsc1 | 691 s
16 | COc1cc(NC(=O)N2CCN(c3cc(C)nc(N4CCOCC4)n3)CC2)cc(OC)c1 | 627 s
17 | COCC(=O)N1CCCN(C2=NS(=O)(=O)C(c3ccc(F)cc3)=C2C)CC1 | 677 s
18 | COc1ccc(CN2C=C(C(=O)OCc3noc(C)n3)C(C)=NS2(=O)=O)cc1 | 873 s
19 | CCCN1C(=O)COc2ccc(-c3noc(-c4cc(OC)c(OC)c(OC)c4)n3)cc21 | 1140 s
20 | O=C1CCN(C(=O)Nc2ccccc2)CCOCCN1 | 613 s
21 | Cn1c(=O)c(N2CCC(NC(=O)Nc3ccc(Cl)cc3)CC2)nc2cccnc21 | 907 s
22 | O=C([C@@H]1C[C@H](F)CN1C(=O)c1ccoc1)N1CCCCC1 | 576 s
23 | COc1cccc(S(=O)(=O)N2CCOCC2)c1 | 708 s
24 | CN(C)C(=O)c1n[nH]c2c1CN(C(=O)c1ccccc1Br)CC2 | 623 s
25 | CC1CCN(CCCNc2nc3ccncc3n(Cc3ccccc3)c2=O)CC1 | 731 s
26 | CCCN(CC1CCOC1)C(=O)Nc1ccc(C)c(C)c1 (stereo unspecified) | 869 s
27 | CS(=O)(=O)N1CCC(C(=O)N2CCC(Oc3nc4ccc(F)cc4s3)CC2)CC1 | 779 s

Row | SMILES | RP-LC retention time
28 | O=C(c1ccsc1)N1CCN(C(=O)c2cc(-c3ccccn3)n[nH]2)CC1 | 614 s
29 | Cn1c(C2CCN(C(=O)c3ccsc3)C2)nc2cccnc21 (stereo unspecified) | 606 s
30 | Cc1cc(=O)n2nc(-c3ccc(Cl)cc3)nc2n1CC(=O)NC(C)C | 744 s
31 | CCC(C)NC(=O)c1cnn(-c2ccc(-c3nc(C)no3)cn2)c1C (stereo unspecified) | 821 s
32 | O=C(COc1ncccn1)Nc1ccc(F)c(F)c1 | 665 s
33 | CS(=O)(=O)N1CC[C@H]2CN(Cc3cn[nH]c3-c3ccccc3)C[C@@]2(CF)C1 | 592 s
34 | COc1cc(NC(=O)Cn2nc3n(c2=O)CCCCC3)cc(OC)c1 | 704 s
35 | Cc1ccc(C2=NC3(CCN(C(=O)c4cccs4)CC3)ON2)cc1 | 810 s
36 | Cc1ccc(CN2CCCn3nc(C(=O)NCCc4c[nH]c5ccc(Cl)cc45)cc3C2=O)cc1 | 953 s
37 | O=C(C1CCN(c2nc(-c3ccc(Cl)cc3)no2)CC1)N1CCOCC1 | 874 s
38 | Cc1ccc(C(=O)N2C[C@@H]3C[C@H]2C[C@@H]3NS(=O)(=O)c2cccs2)cc1F | 827 s
39 | O=C(CSc1nnc(CNC(=O)c2ccc(F)cc2)o1)NCc1ccco1 | 647 s
40 | CC(=O)Nc1ccc(OCC(O)CNC(C)(C)CC(C)(C)C)cc1 (stereo unspecified) | 562 s
41 | O=C(NC1CCCCCC1)c1cccc(Cn2cncn2)c1 | 729 s
42 | CC(C)NC(=O)c1ccc(OCC2CCCN2C(=O)c2ccc(F)c(F)c2)cc1 (stereo unspecified) | 862 s
43 | Cc1ccc(Nc2c(-c3cccc(Br)c3)nc3ccc(Cl)cn23)cc1 | 1130 s
44 | Cc1nn(CC(=O)NC2CCCCC2)c(=O)c2c(-n3cccc3)n(-c3ccc(Cl)cc3)nc12 | 1130 s
45 | Clc1cc(I)cc(Cl)c1NC1=NCCN1 | 655 s
46 | COCc1nc2c(NC(=O)C(C)C)cccn2n1 | 653 s
47 | CN1C(=O)CS(=O)C12CCN(C(=O)Nc1ccccc1)CC2 (stereo unspecified) | 599 s
48 | COc1ccc(-c2nnc(-c3ccc(C)c(S(=O)(=O)NC(C)C)c3)o2)cc1OC | 873 s
49 | CC(C)c1noc(C2(NC(=O)c3ccccc3F)CCCCC2)n1 | 1020 s
50 | O=C(c1ccsc1)N1CCCCC1c1nncn1CC1CC1 (stereo unspecified) | 681 s
51 | O=C(CN1C(=O)COc2ccc(C(=O)N3CCc4ccccc4C3)cc21)N1CCCC1 | 763 s
52 | CN1C(=O)CCC2(CNC(=O)c3cnccn3)CCC=C12 (stereo unspecified) | 644 s
53 | CCn1cc(-c2ccc(C)cc2)cc1C(=O)NCCN(C)C | 680 s
54 | Fc1cccc(-c2cc(CN3CCN(c4ncccn4)CC3)[nH]n2)c1 | 618 s

Now from value to compound:

Row | RP-LC retention time | SMILES
55 | 707 s | O=C(Nc1nc(C(=O)NCc2nc(-c3ccccc3)no2)co1)c1ccsc1
56 | 745 s | CN1C(=O)c2cccnc2Sc2cc(NC(=O)c3cccs3)ccc21
57 | 663 s | O=C(Nc1cc(-c2ccncc2)no1)c1ccccc1
58 | 806 s | CC1=C(c2ccc(F)cc2)S(=O)(=O)N=C1N1CCCN(C(=O)Nc2ccccc2)CC1
59 | 650 s | CCc1nc(N)n(CC(=O)Nc2ccc(OC)cc2)c(=O)c1C
60 | 990 s | COC(=O)c1ccc(NC(=O)Cn2c(=O)cc(-c3nc(C(C)C)no3)c3ccccc32)cc1
61 | 642 s | COc1ccc(NC(=O)Cn2ncc3c(N4CCN(c5ccccn5)CC4)ncnc32)cc1Cl
62 | 595 s | Cc1cccc(NC(=O)c2ccc(=O)n(C)n2)n1
63 | 852 s | O=C(Cn1cc(-c2ccccc2)c2ncn(C3CC3)c(=O)c21)NCc1ccc2c(c1)OCO2
64 | 658 s | COc1ccc(NS(=O)(=O)c2cc(-c3[nH]ncc3C(=O)N(C)C)oc2C)cc1
65 | 660 s | CCOC(=O)C1=C(CN2CCc3ccccc3C2)NC(=O)NC1c1cccc(OC)c1OC (stereo unspecified)
66 | 893 s | O=[N+]([O-])c1ccccc1S(=O)(=O)N1CCc2ccccc21
67 | 1190 s | O=S(=O)(Nc1ccc(F)c(F)c1)c1ccccc1-c1nc(-c2ccccc2)no1
68 | 665 s | Cc1csc(NC(=O)C2CC(=O)N(c3n[nH]c4ccccc34)C2)n1 (stereo unspecified)
69 | 596 s | O=C(Cn1c(=O)n(-c2ccccc2)c2ncccc21)NCCCN1CCOCC1
70 | 1030 s | COc1ccccc1N1CCN(c2cc(SCC(=O)Nc3cccc(C)c3C)ncn2)CC1
71 | 867 s | CN(Cc1ccccc1)C(=O)C1CCN(S(=O)(=O)Cc2ccccc2)CC1
72 | 595 s | CN(C)C(CNS(=O)(=O)c1ccc(Br)s1)c1cn(C)c2ccccc12 (stereo unspecified)
73 | 1140 s | Cc1ccc(NC(=O)c2cc(C(C)C)n3nccc3n2)cc1

Row | RP-LC retention time | SMILES
74 | 704 s | CS(=O)(=O)Nc1ccc(-c2noc(CNC(=O)c3ccccc3)n2)cc1
75 | 1060 s | COCCCn1c(=O)c2ccccc2n(Cc2nc(-c3ccc(C)cc3)no2)c1=O
76 | 655 s | O=C(CSc1nccn1-c1ccc(Cl)cc1)NCc1ccco1
77 | 1130 s | COc1ccc(Br)c2c1-c1nc(NC(=O)c3ccccc3)sc1C2
78 | 940 s | O=C(COC(=O)C(c1ccccc1)c1ccccc1)Nc1ccc2c(c1)OCO2
79 | 726 s | COc1ccccc1Cn1c(COc2ccccc2OC)nc2ccccc21
80 | 836 s | COC(=O)c1cccc(NC(=O)N2C[C@@H]3C[C@H](NC(=O)c4ccccc4)[C@H]2C3)c1
81 | 908 s | COc1ccc(OC)c(NC(=O)C(C)C2CCN(C(=O)Nc3ccc(C)cc3)CC2)c1 (stereo unspecified)
82 | 862 s | O=C(Nc1ccccc1)c1cccc(N2CC(C(=O)NC3CCCCCC3)CC2=O)c1 (stereo unspecified)
83 | 705 s | CCNC(=O)c1nc(Nc2ccc(C)cc2)c2ccccc2n1
84 | 676 s | Cc1ccc(C(=O)N2CCN(c3nnc4ccccn34)CC2)cc1C
85 | 888 s | Cc1sc(NC(=O)CCc2ccccc2)nc1-c1ccc2c(c1)NC(=O)CO2
86 | 622 s | O=C(Cn1cnc2ccccc2c1=O)NCCn1nc(-c2cccs2)ccc1=O
87 | 780 s | COc1ccc(-n2ccn3cc(-c4ccc(OC)c(OC)c4)nc3c2=O)cc1Cl
88 | 1160 s | Cc1c(-c2cc(NS(=O)(=O)c3ccccc3Cl)n(C)n2)sc2ccc(Cl)cc12
89 | 1010 s | Cc1ccc(N2N=NC3C(=O)N(c4ccccc4)C(=O)C32)cc1F (stereo unspecified)
90 | 872 s | Cc1nc(Nc2ccc(F)cn2)sc1C(=O)N1CCc2ccccc2C1
91 | 830 s | COc1c(NC(C)=O)c2ccccc2c2ccccc12

Source: the METLIN SMRT retention time set (Domingo-Almenara et al. 2019)
